The values that follow come from US11464770B2, “Anticancer pharmaceutical composition” (NATIONAL CANCER CENTER, priority 2016, dated 2022).

SMILES strings stand for the structures. Like-named read-outs stand apart in the source and are kept apart here.

Test [1] deals with bladder cancer cell lines. Kind of test: Cell based assay, cell viability (CellTiter-Glo), bladder cancer cell lines. To be noted: 72 hours treatment, 0 to 2 μM, CellTiter-Glo. In short, it runs like this:
(§1)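 Cell lines seeded, cultured 24 hours, then exposed to compound at final 0 to 2 μM. After a further 72 hours, viability measured by ATP-detection luminescence (CellTiter-Glo).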
(In general: ATP-based viability assays read luminescence as a measure of living cells.)

The next test deals with liver cancer cell lines. Kind of test: Cell based assay, cell viability (CellTiter-Glo), liver cancer cell lines. To be noted: Homo sapiens, SK-HEP1; SK-HEP-1 cell line. In short, it runs like this:
as §1

For another test, the system named is melanoma cell lines. Kind of test: Cell based assay, cell viability (CellTiter-Glo), melanoma cell lines. The conditions noted are these: Homo sapiens; LOX-IMVI cell line. In short, it runs like this:
as §1

Where [2] appears, read: 253J cells, read-out: IC50, bladder cancer cell line 253J.
The mark [3] stands for this setting: 5637 cells, read-out: IC50, bladder cancer cell line 5637.
Where [4] appears, read: Homo sapiens, T-24, T24 cells, read-out: IC50, bladder cancer cell line T24.
Where [5] appears, read: Homo sapiens, J82 cells, read-out: IC50, bladder cancer cell line J82.
[6] abbreviates: Homo sapiens, UMUC3, UM-UC-3 cells, read-out: IC50, bladder cancer cell line UM-UC-3.
Where [7] appears, read: Homo sapiens, KU-19-19 cells, read-out: IC50, bladder cancer cell line KU-19-19.
Setting [8] is: MBT-2 cells, read-out: IC50, bladder cancer cell line MBT-2.

Usually IC50 stands for the concentration that inhibits the measured activity by half. `CC(=O)c1c([S+]([O-])Cc2cc(C)on2)[nH]c2c(F)ccc(F)c2c1=O` (stereo not shown) [Compound 82, 3-acetyl-5,8-difluoro-2-(((5-methylisoxazol-3-yl)methyl)sulfinyl)quinolin-4(1H)-one]: the IC50 (in test [1] (setting [2]); in test [1] (setting [3]); in test [1] (setting [4]); in test [1] (setting [5]); with liver cancer cell lines; in the test on melanoma cell lines) was above 2 µM in each case.

On to `CC(C)C(=O)c1c([S+]([O-])Cc2ccc(SC(F)(F)F)cc2)[nH]c2c(F)ccc(F)c2c1=O` (stereo not shown) [Compound 85, 5,8-difluoro-3-isobutyryl-2-((4-((trifluoromethyl)thio)benzyl)sulfinyl)quinolin-4(1H)-one], for which the IC50 (in test [1] (setting [2]); in test [1] (setting [3]); in test [1] (setting [4]); in test [1] (setting [5]); with liver cancer cell lines; in the test with melanoma cell lines) was above 2 µM in each case.

As for `COc1cccc2[nH]c([S+]([O-])Cc3cc(C)on3)c(C(C)=O)c(=O)c12` (stereo not shown) [Compound 94, 3-acetyl-5-methoxy-2-(((5-methylisoxazol-3-yl)methyl)sulfinyl)quinolin-4(1H)-one], the IC50 (in test [1] (setting [2]); in test [1] (setting [3]); in test [1] (setting [4]); in test [1] (setting [5]); in the test with liver cancer cell lines; with melanoma cell lines) was above 2 µM throughout.

As for `CC(=O)c1c([S+]([O-])Cc2cccc(C#N)c2)[nH]c2c(Br)ccc(Cl)c2c1=O` (stereo not shown) [Compound 28, 3-(((3-acetyl-8-bromo-5-chloro-4-oxo-1,4-dihydroquinolin-2-yl)sulfinyl)methyl)benzonitrile], the IC50 in test [1] (setting [3]) was 1.03 µM; in test [1] (setting [4]), 0.82 µM; in test [1] (setting [5]), 1.33 µM; in the test on liver cancer cell lines, 0.76 µM; in the test on melanoma cell lines, 0.88 µM.

As to `CC(=O)c1c([S+]([O-])Cc2ccc(NS(C)(=O)=O)cc2)[nH]c2c(Br)ccc(Cl)c2c1=O` (stereo not shown) [Compound 103, N-(4-(((3-acetyl-8-bromo-5-chloro-4-oxo-1,4-dihydroquinolin-2-yl)sulfinyl)methyl)phenyl)methane-sulfonamide], the IC50 (in test [1] (setting [2]); in test [1] (setting [3]); in test [1] (setting [4]); in test [1] (setting [5]); in the test on liver cancer cell lines; in the test on melanoma cell lines) was above 2 µM throughout.

On to `COCSc1[nH]c2c(Br)ccc(Cl)c2c(=O)c1C(C)=O` [Compound 61, 3-acetyl-8-bromo-5-chloro-2-((methoxymethyl)thio)quinolin-4(1H)-one], for which the half-maximal inhibitory concentration (IC50) in test [1] (setting [2]), in test [1] (setting [3]), in test [1] (setting [4]), in test [1] (setting [6]), in test [1] (setting [5]) and in test [1] (setting [7]) was above 2 µM throughout. Moreover, the IC50 (in test [1] (setting [8]); in the test with liver cancer cell lines; with melanoma cell lines) was above 2 µM throughout.

Turning to `CC(=O)c1c([S+]([O-])Cc2ccc(Cl)cc2)[nH]c2c(Br)ccc(Cl)c2c1=O` (stereo not shown) [Compound 11, 3-acetyl-8-bromo-5-chloro-2-((4-chlorobenzyl)sulfinyl)quinolin-4(1H)-one], the 50% inhibitory concentration (IC50) in test [1] (setting [3]) was above 2 µM; in test [1] (setting [4]), 1.83 µM; in test [1] (setting [5]) it was above 2 µM; in the test with liver cancer cell lines, above 2 µM; in the test with melanoma cell lines it was above 2 µM.

As to `CC(=O)c1c(S)[nH]c2c(Br)ccc(Cl)c2c1=O` [Compound 62, 3-acetyl-8-bromo-5-chloro-2-mercaptoquinolin-4(1H)-one], the IC50 in test [1] (setting [2]), in test [1] (setting [3]), in test [1] (setting [4]), in test [1] (setting [6]), in test [1] (setting [5]) and in test [1] (setting [7]) was above 2 µM each time. Moreover, the half-maximal inhibitory concentration (IC50) (in test [1] (setting [8]); in the test with liver cancer cell lines; in the test with melanoma cell lines) was above 2 µM throughout.

As for `COc1cccc2[nH]c([S+]([O-])Cc3ccc(S(F)(F)(F)(F)F)cc3)c(C(C)=O)c(=O)c12` (stereo not shown) [Compound 93, 3-acetyl-5-methoxy-2-((4-(pentafluoro--sulfanyl)benzyl)sulfinyl)quinolin-4(1H)-one], the IC50 (in test [1] (setting [2]); in test [1] (setting [3]); in test [1] (setting [4]); in test [1] (setting [5]); in the test on liver cancer cell lines; in the test on melanoma cell lines) was above 2 µM each time.

As for `CC(=O)c1c(S(C)(=O)=O)n(C(=O)c2ccc(Br)cc2)c2c(Br)ccc(Cl)c2c1=O` [Compound 21, 3-acetyl-8-bromo-1-(4-bromobenzoyl)-5-chloro-2-(methylsulfonyl)quinolin-4(1H)-one], the half-maximal inhibitory concentration (IC50) in test [1] (setting [2]), in test [1] (setting [3]), in test [1] (setting [4]), in test [1] (setting [6]), in test [1] (setting [5]) and in test [1] (setting [7]) was above 2 µM throughout. Further, the IC50 (in test [1] (setting [8]); in the test on liver cancer cell lines; in the test on melanoma cell lines) was above 2 µM throughout.

`CC(=O)c1c(SCC#N)[nH]c2c(Br)ccc(Cl)c2c1=O` [Compound 66, 2-((3-acetyl-8-bromo-5-chloro-4-oxo-1,4-dihydroquinolin-2-yl)thio)acetonitrile]: the 50% inhibitory concentration (IC50) in test [1] (setting [2]), in test [1] (setting [3]), in test [1] (setting [4]), in test [1] (setting [6]), in test [1] (setting [5]) and in test [1] (setting [7]) was above 2 µM each time. Further, the IC50 (in test [1] (setting [8]); in the test on liver cancer cell lines; in the test on melanoma cell lines) was above 2 µM each time.

Regarding `CC(=O)c1c(Sc2ccc(Br)cc2)[nH]c2c(Br)ccc(Cl)c2c1=O` [Compound 16, 3-acetyl-8-bromo-2-((4-bromophenyl)thio)-5-chloroquinolin-4(1H)-one], the half-inhibitory concentration (IC50) in test [1] (setting [2]), in test [1] (setting [3]), in test [1] (setting [4]), in test [1] (setting [6]), in test [1] (setting [5]) and in test [1] (setting [7]) was above 2 µM throughout. Moreover, the IC50 (in test [1] (setting [8]); in the test on liver cancer cell lines; in the test on melanoma cell lines) was above 2 µM in each case.
